Test results as given in patent US10030020B2, “Spirocycle compounds and methods of making and using same” (Abide Therapeutics, Inc., priority 2016, dated 2018).

What was measured:
Format in all cases: biochemical
MAGL = MAGL (Mus musculus (Mouse), UniProt O35678); assay: In vitro competitive activity-based protein profiling (mouse brain membrane fraction or cell lysates), MAGL band; conditions: mouse proteome; for inhibition at 1 µM: read-out: MAGL % Inh 1 μM (mouse); for IC50: competitive ABPP
Chain of MAGL (O35678 whole entry): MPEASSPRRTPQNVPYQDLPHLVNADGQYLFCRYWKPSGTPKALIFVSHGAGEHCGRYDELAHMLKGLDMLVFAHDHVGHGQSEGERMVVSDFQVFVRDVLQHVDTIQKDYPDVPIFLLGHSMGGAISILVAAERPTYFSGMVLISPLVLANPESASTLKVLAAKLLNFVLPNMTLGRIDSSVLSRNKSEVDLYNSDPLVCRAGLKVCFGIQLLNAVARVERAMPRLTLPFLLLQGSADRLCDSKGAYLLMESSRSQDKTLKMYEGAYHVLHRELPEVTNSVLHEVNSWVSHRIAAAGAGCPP
Description: (§1) In Vitro Competitive Activity-Based Protein Profiling.
(§2) Proteomes (mouse brain membrane fraction or cell lysates) (50 μL, 1.0 mg/mL total protein concentration) were preincubated with varying concentrations of inhibitors at 37° C. After 30 min, FP—Rh (1.0 μL, 50 μM in DMSO) was added and the mixture was incubated for another 30 min at 37° C. Reactions were quenched with SDS loading buffer (50 μL-4×) and run on SDS-PAGE.

ABHD6 = ABHD6 (Mus musculus (Mouse), UniProt Q8R2Y0); assay: In vitro competitive activity-based protein profiling (mouse brain membrane fraction or cell lysates), ABHD6 band; conditions: mouse proteome; for inhibition at 1 µM: read-out: ABHD6 % Inh 1 μM (mouse); for IC50: competitive ABPP
Chain of ABHD6 (Q8R2Y0 whole entry): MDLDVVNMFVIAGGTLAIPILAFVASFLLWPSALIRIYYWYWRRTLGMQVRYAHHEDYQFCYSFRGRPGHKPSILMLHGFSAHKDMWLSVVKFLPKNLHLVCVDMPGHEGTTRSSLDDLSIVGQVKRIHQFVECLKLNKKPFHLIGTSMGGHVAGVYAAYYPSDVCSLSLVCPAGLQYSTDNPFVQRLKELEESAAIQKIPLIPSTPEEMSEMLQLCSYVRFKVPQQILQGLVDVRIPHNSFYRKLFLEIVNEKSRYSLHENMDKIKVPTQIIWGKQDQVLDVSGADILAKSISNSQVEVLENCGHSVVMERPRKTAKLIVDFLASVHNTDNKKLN
Description: as §1
as §2, with “SDS-PAGE. Following gel imaging, serine hydrolase activity was determined by measuring fluorescent intensity of gel bands corresponding to MAGL, ABHD6 and FAAH using ImageJ 1.43u software.” for “SDS-PAGE.”

FAAH = FAAH (Mus musculus (Mouse), UniProt O08914); assay: In vitro competitive activity-based protein profiling (mouse brain membrane fraction or cell lysates), FAAH band; conditions: mouse proteome; for inhibition at 1 µM: read-out: FAAH % Inh 1 μM (mouse); for IC50: competitive ABPP
Chain of FAAH (O08914 whole entry): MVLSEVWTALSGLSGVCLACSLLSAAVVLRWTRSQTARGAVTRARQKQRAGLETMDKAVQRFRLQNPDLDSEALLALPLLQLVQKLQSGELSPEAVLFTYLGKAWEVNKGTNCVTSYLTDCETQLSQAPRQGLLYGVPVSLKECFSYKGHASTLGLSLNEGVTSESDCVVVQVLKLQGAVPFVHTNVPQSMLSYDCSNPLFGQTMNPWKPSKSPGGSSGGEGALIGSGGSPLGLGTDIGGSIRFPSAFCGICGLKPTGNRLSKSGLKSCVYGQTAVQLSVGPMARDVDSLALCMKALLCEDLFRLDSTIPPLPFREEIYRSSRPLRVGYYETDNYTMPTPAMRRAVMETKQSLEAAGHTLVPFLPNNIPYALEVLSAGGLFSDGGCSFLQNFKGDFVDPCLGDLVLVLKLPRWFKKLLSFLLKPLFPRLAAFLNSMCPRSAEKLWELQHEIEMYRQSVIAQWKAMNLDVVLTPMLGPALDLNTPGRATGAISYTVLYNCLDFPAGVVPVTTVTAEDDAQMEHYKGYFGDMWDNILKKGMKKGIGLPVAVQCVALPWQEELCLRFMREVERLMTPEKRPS
Description: as §1
as §2, with “SDS-PAGE. Following gel imaging, serine hydrolase activity was determined by measuring fluorescent intensity of gel bands corresponding to MAGL, ABHD6 and FAAH using ImageJ 1.43u software.” for “SDS-PAGE.”

SMILES | inhibition at 1 µM (MAGL) | IC50 (MAGL) | inhibition at 1 µM (ABHD6) | IC50 (ABHD6) | inhibition at 1 µM (FAAH) | IC50 (FAAH)
CC1(C)CC2(CCN(C(=O)OC(C(F)(F)F)C(F)(F)F)CC2)CN1Cc1c(N2CCC3(CCOCC3)C2)cccc1C(F)(F)F [Example 56, 1,1,1,3,3,3-Hexafluoropropan-2-yl 2-(2-(8-oxa-2-azaspiro[4.5]decan-2-yl)-6-(trifluoromethyl)benzyl)-3,3-dimethyl-2,8-diazaspiro[4.5]decane-8-carboxylate] | 25 to 75% | 100 to 1000 nM | < 25% | > 1000 nM | < 25% | > 1000 nM
CC1(C)CC2(CCN(C(=O)OC(C(F)(F)F)C(F)(F)F)CC2)CN1Cc1c(N2CC3COCC3C2)cccc1C(F)(F)F (stereo not drawn) [Example 57, 1,1,1,3,3,3-Hexafluoropropan-2-yl 3,3-dimethyl-2-(2-(tetrahydro-1H-furo[3,4-c]pyrrol-5(3H)-yl)-6-(trifluoromethyl)benzyl)-2,8-diazaspiro[4.5]decane-8-carboxylate] | > 75% |  | < 25% | > 1000 nM | < 25% | > 1000 nM
O=C(OC(C(F)(F)F)C(F)(F)F)N1CCC2(CCN(Cc3cccc(N4CCCC4)c3)C2)CC1 [Example 58, 1,1,1,3,3,3-Hexafluoropropan-2-yl 2-(3-(pyrrolidin-1-yl)benzyl)-2,8-diazaspiro[4.5]decane-8-carboxylate] | > 75% | 100 to 1000 nM | ≥ 75% | 100 to 1000 nM | < 25% | > 1000 nM
O=C(OC(C(F)(F)F)C(F)(F)F)N1CCC2(CCN(Cc3c(N4CCCC4)cccc3C(F)(F)F)C2)CC1 [Example 59, 1,1,1,3,3,3-Hexafluoropropan-2-yl 2-(2-(pyrrolidin-1-yl)-6-(trifluoromethyl)benzyl)-2,8-diazaspiro[4.5]decane-8-carboxylate] | > 75% | 100 to 1000 nM | < 25% | > 1000 nM | < 25% | > 1000 nM
O=C(OC(C(F)(F)F)C(F)(F)F)N1CCC2(CCCN2Cc2ccccc2)CC1 [Example 63, 1,1,1,3,3,3-Hexafluoropropan-2-yl 1-benzyl-1,8-diazaspiro[4.5]decane-8-carboxylate] | > 75% |  | < 25% | > 1000 nM | < 25% | > 1000 nM
O=C(OC(C(F)(F)F)C(F)(F)F)N1CCC2(CCCN2Cc2cccc(N3CCOCC3)c2)CC1 [Example 69, 1,1,1,3,3,3-Hexafluoropropan-2-yl 1-(3-morpholinobenzyl)-1,8-diazaspiro[4.5]decane-8-carboxylate] | > 75% |  | < 25% | > 1000 nM | < 25% | 
CC(=O)N1CCCc2cccc(CN3CCC4(CCN(C(=O)OC(C(F)(F)F)C(F)(F)F)CC4)C3)c21 [Example 70, 1,1,1,3,3,3-Hexafluoropropan-2-yl 2-((1-acetyl-1,2,3,4-tetrahydroquinolin-8-yl)methyl)-2,8-diazaspiro[4.5]decane-8-carboxylate] | > 75% |  | ≥ 75% | 100 to 1000 nM | < 25% | 
O=C(OC(C(F)(F)F)C(F)(F)F)N1CCC2(CCCN2Cc2ccc(C(F)(F)F)cc2N2CCS(=O)(=O)CC2)CC1 [Example 92, 1,1,1,3,3,3-Hexafluoropropan-2-yl 1-(2-(1,1-dioxidothiomorpholino)-4-(trifluoromethyl)benzyl)-1,8-diazaspiro[4.5]decane-8-carboxylate] | > 75% | < 100 nM | ≥ 75% | 100 to 1000 nM | < 25% | > 1000 nM
O=C(OC(C(F)(F)F)C(F)(F)F)N1CCC2(CCCN2Cc2ccc(C(F)(F)F)cc2N2CCCCCC2)CC1 [Example 95, 1,1,1,3,3,3-Hexafluoropropan-2-yl 1-(2-(azepan-1-yl)-4-(trifluoromethyl)benzyl)-1,8-diazaspiro[4.5]decane-8-carboxylate] | 25 to 75% | 100 to 1000 nM | < 25% | > 1000 nM | < 25% | > 1000 nM
O=C(OC(C(F)(F)F)C(F)(F)F)N1CCC2(CCCN2Cc2cccc(N3C4CCC3COC4)c2Cl)CC1 [Example 109, 1,1,1,3,3,3-Hexafluoropropan-2-yl 1-(3-(3-oxa-8-azabicyclo[3.2.1]octan-8-yl)-2-chlorobenzyl)-1,8-diazaspiro[4.5]decane-8-carboxylate] | > 75% | < 100 nM | < 25% | > 1000 nM | < 25% | > 1000 nM
O=C(OC(C(F)(F)F)C(F)(F)F)N1CCC2(CCCN2Cc2cccc(N3CCC(F)(F)CC3)c2Cl)CC1 [Example 111, 1,1,1,3,3,3-Hexafluoropropan-2-yl 1-(2-chloro-3-(4,4-difluoropiperidin-1-yl)benzyl)-1,8-diazaspiro[4.5]decane-8-carboxylate] | > 75% | < 100 nM | < 25% | > 1000 nM | < 25% | > 1000 nM

The next lines start with the values.

inhibition at 1 µM (MAGL) | IC50 (MAGL) | inhibition at 1 µM (ABHD6) | IC50 (ABHD6) | inhibition at 1 µM (FAAH) | IC50 (FAAH) | SMILES
> 75% | < 100 nM | < 25% | > 1000 nM | < 25% | > 1000 nM | Cc1c(CN2CCCC23CCN(C(=O)OC(C(F)(F)F)C(F)(F)F)CC3)cccc1N1CCOCC1 [Example 83, 1,1,1,3,3,3-Hexafluoropropan-2-yl 1-(2-methyl-3-morpholinobenzyl)-1,8-diazaspiro[4.5]decane-8-carboxylate]
> 75% | 100 to 1000 nM | < 25% | > 1000 nM | < 25% | > 1000 nM | CCN1CCN(c2cc(Cl)ccc2CN2CCCC23CCN(C(=O)OC(C(F)(F)F)C(F)(F)F)CC3)CC1 [Example 98, 1,1,1,3,3,3-Hexafluoropropan-2-yl 1-(4-chloro-2-(4-ethylpiperazin-1-yl)benzyl)-1,8-diazaspiro[4.5]decane-8-carboxylate]
> 75% | 100 to 1000 nM | ≥ 75% | 100 to 1000 nM | < 25% | > 1000 nM | O=C(OC(C(F)(F)F)C(F)(F)F)N1CCC2(CCCN2Cc2ccc(Cl)cc2N2CCS(=O)(=O)CC2)CC1 [Example 103, 1,1,1,3,3,3-Hexafluoropropan-2-yl 1-(4-chloro-2-(1,1-dioxidothiomorpholino)benzyl)-1,8-diazaspiro[4.5]decane-8-carboxylate]
> 75% | 100 to 1000 nM | < 25% | > 1000 nM | < 25% | > 1000 nM | O=C(OC(C(F)(F)F)C(F)(F)F)N1CCC2(CCCN2Cc2ccc(Cl)cc2N2CCCCCC2)CC1 [Example 106, 1,1,1,3,3,3-Hexafluoropropan-2-yl 1-(2-(azepan-1-yl)-4-chlorobenzyl)-1,8-diazaspiro[4.5]decane-8-carboxylate]
> 75% | < 100 nM | < 25% | > 1000 nM | < 25% | > 1000 nM | O=C(OC(C(F)(F)F)C(F)(F)F)N1CCC2(CCCN2Cc2cccc(N3CCC(F)CC3)c2Cl)CC1 [Example 110, 1,1,1,3,3,3-Hexafluoropropan-2-yl 1-(2-chloro-3-(4-fluoropiperidin-1-yl)benzyl)-1,8-diazaspiro[4.5]decane-8-carboxylate]
